In ChEMBL document CHEMBL4480444, “Structural requirement of tunicamycin V for MraY inhibition” (Bioorg Med Chem, 2019) one finds IC50 data, which are given here for five molecules.

Bounds are passed on as bounds.

The assay deals with T1, Phospho-N-acetylmuramoyl-pentapeptide-transferase (Staphylococcus aureus, UniProt P0C1R8).
T1 sequence (P0C1R8 whole entry): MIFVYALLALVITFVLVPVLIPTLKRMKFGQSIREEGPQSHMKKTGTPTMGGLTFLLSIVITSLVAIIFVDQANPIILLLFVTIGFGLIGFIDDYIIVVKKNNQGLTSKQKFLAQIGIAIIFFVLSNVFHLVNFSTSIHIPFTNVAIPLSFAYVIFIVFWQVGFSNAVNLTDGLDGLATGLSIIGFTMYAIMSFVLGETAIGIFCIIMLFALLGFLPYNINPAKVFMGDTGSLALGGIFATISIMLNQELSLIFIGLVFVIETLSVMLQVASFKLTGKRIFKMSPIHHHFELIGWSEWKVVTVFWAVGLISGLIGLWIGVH
As to the kind of experiment: Inhibition of Staphylococcus aureus MraY assessed as reduction in dansylated lipid I formation using UDP-MurNAc-dansylpentapeptide incubated for 3 hrs by fluorescence assay.
In general, IC50 refers to the midpoint of a concentration-inhibition curve. With `CC(C)CCCCCCCCC/C=C/C(=O)N[C@H]1C(O)O[C@H](C[C@@H](O)[C@H]2O[C@@H](n3ccc(=O)[nH]c3=O)[C@H](O)[C@@H]2O)[C@H](O)[C@@H]1O` (stereo not given in full), the IC50 came out at 36 µM.

Regarding `CC(=O)N[C@H]1[C@H](O[C@H]2O[C@H](CO)[C@@H](O)[C@H](O)[C@H]2NC(C)=O)O[C@H](C[C@@H](O)[C@H]2O[C@@H](n3ccc(=O)[nH]c3=O)[C@H](O)[C@@H]2O)[C@H](O)[C@@H]1O`, the IC50 is 36 µM.

Regarding `CC(=O)N[C@H]1[C@@H](O[C@@H]2O[C@H](CO)[C@H](O)[C@H](O)[C@H]2NC(=O)/C=C/CCCCCCCCCC(C)C)O[C@H](CO)[C@@H](O)[C@@H]1O`, the IC50 was greater than 100 µM.

Consider `CC(=O)N[C@H]1[C@@H](O[C@@H]2O[C@H](C[C@@H](O)[C@H]3O[C@@H](n4ccc(=O)[nH]c4=O)[C@H](O)[C@@H]3O)[C@H](O)[C@H](O)[C@H]2NC(=O)/C=C/CCCCCCCCCC(C)C)O[C@H](CO)[C@@H](O)[C@@H]1O` (stereo in doubt; form 1), for which the IC50 was 0.25 µM.

On to `CC(=O)N[C@H]1[C@@H](O[C@@H]2O[C@H](C[C@@H](O)[C@H]3O[C@@H](n4ccc(=O)[nH]c4=O)[C@H](O)[C@@H]3O)[C@H](O)[C@H](O)[C@H]2NC(=O)/C=C/CCCCCCCCCC(C)C)O[C@H](CO)[C@@H](O)[C@@H]1O` (stereo in doubt; form 2), for which the IC50 is 0.35 µM.
